System: MV-4-11 cells
Assay: Gene expression microarray analysis (Affymetrix PrimeView) and GSEA
Type: cell-based, human
Set-up: RFU PODN (11730768_x_at) / Fold change /veh PODN (11730768_x_at) / RFU LINC00158 (11744669_a_at) / Fold change /veh LINC00158 (11744669_a_at) / RFU DUSP10 (11751237_a_at) / Fold change /veh DUSP10 (11751237_a_at) / RFU ID3 (11757404_x_at) / Fold change /veh ID3 (11757404_x_at) / RFU PLEKHG5 (11737974_s_at) / Fold change /veh PLEKHG5 (11737974_s_at) / RFU LRRC4B (11730491_at) / Fold change /veh LRRC4B (11730491_at) / RFU GIMAP4 (11747438_a_at) / Fold change /veh GIMAP4 (11747438_a_at) / RFU KRT8 (11758183_x_at) / Fold change /veh KRT8 (11758183_x_at) / RFU CNN1 (11734310_a_at) / Fold change /veh CNN1 (11734310_a_at) / RFU VPS37D (11726825_at) / Fold change /veh VPS37D (11726825_at) / RFU C10orf10 (11716522_x_at) / Fold change /veh C10orf10 (11716522_x_at) / RFU KIR2DL2 /// KIR2DL4 /// KIR2DL5A /// KIR2DL5B /// KIR2DS1 /// KIR2DS2 /// KIR2DS3 /// KIR2DS4 /// KIR3DL3 /// KIR3DL3 /// KIR3DS1 (11738374_at) / Fold change /veh KIR2DL2 /// KIR2DL4 /// KIR2DL5A /// KIR2DL5B /// KIR2DS1 /// KIR2DS2 /// KIR2DS3 /// KIR2DS4 /// KIR3DL3 /// KIR3DL3 /// KIR3DS1 (11738374_at) / RFU C1QL1 (11718748_at) / Fold change /veh C1QL1 (11718748_at) / RFU TMPRSS4 (11747572_a_at) / Fold change /veh TMPRSS4 (11747572_a_at) / RFU HAMP (11756126_x_at) / Fold change /veh HAMP (11756126_x_at) / RFU RNFT2 (11725882_a_at) / Fold change /veh RNFT2 (11725882_a_at) / RFU NR4A2 (11747474_a_at) / Fold change /veh NR4A2 (11747474_a_at) / RFU ABCC12 (11746883_a_at) / Fold change /veh ABCC12 (11746883_a_at) / RFU TMEM136 (11760407_x_at) / Fold change /veh TMEM136 (11760407_x_at) / RFU CLDN22 /// WWC2 (11732394_at) / Fold change /veh CLDN22 /// WWC2 (11732394_at) / RFU HLA-DPB1 (11760878_x_at) / Fold change /veh HLA-DPB1 (11760878_x_at) / RFU SPINT1 (11716480_a_at) / Fold change /veh SPINT1 (11716480_a_at) / RFU GAP43 (11754022_s_at) / Fold change /veh GAP43 (11754022_s_at) / RFU A4GNT (11735810_at) / Fold change /veh A4GNT (11735810_at) / RFU PRB3 (11715151_x_at) / Fold change /veh PRB3 (11715151_x_at) / RFU TUBB4B (11761932_at) / Fold change /veh TUBB4B (11761932_at) / RFU CAPN14 (11732068_a_at) / Fold change /veh CAPN14 (11732068_a_at) / RFU TMCC2 (11721928_a_at) / Fold change /veh TMCC2 (11721928_a_at) / RFU IRGQ (11745062_a_at) / Fold change /veh IRGQ (11745062_a_at) / RFU FAM174B (11720279_a_at) / Fold change /veh FAM174B (11720279_a_at) / RFU TMPRSS4 (11748680_a_at) / Fold change /veh TMPRSS4 (11748680_a_at) / RFU FAM212B (11763350_a_at) / Fold change /veh FAM212B (11763350_a_at) / RFU PLEKHG5 (11743358_a_at) / Fold change /veh PLEKHG5 (11743358_a_at) / RFU ZSCAN30 (11745921_a_at) / Fold change /veh ZSCAN30 (11745921_a_at) / RFU CMKLR1 (11741424_a_at) / Fold change /veh CMKLR1 (11741424_a_at) / RFU LOC101060620 /// MAPK8IP1 (11723275_at) / Fold change /veh LOC101060620 /// MAPK8IP1 (11723275_at) / RFU SPTSSB (11747773_x_at) / Fold change /veh SPTSSB (11747773_x_at) / RFU PRSS12 (11739890_at) / Fold change /veh PRSS12 (11739890_at) / RFU BIN1 (11741810_x_at) / Fold change /veh BIN1 (11741810_x_at) / RFU WNT11 (11732464_a_at) / Fold change /veh WNT11 (11732464_a_at) / RFU C10orf10 (11716521_a_at) / Fold change /veh C10orf10 (11716521_a_at) / RFU C5orf56 (11738089_at) / Fold change /veh C5orf56 (11738089_at) / RFU CYB561 (11721691_x_at) / Fold change /veh CYB561 (11721691_x_at) / RFU ANKRD19P (11752326_a_at) / Fold change /veh ANKRD19P (11752326_a_at) / RFU OR2T12 /// OR2T33 /// OR2T8 (11738714_s_at) / Fold change /veh OR2T12 /// OR2T33 /// OR2T8 (11738714_s_at) / RFU VCAN (11748164_a_at) / Fold change /veh VCAN (11748164_a_at) / RFU JSRP1 (11732532_at) / Fold change /veh JSRP1 (11732532_at) / RFU KRTAP10-11 (11738290_x_at) / Fold change /veh KRTAP10-11 (11738290_x_at) / RFU MYO3A (11730013_a_at) / Fold change /veh MYO3A (11730013_a_at) / RFU EBF3 (11725865_a_at) / Fold change /veh EBF3 (11725865_a_at) / RFU CAMK2N1 (11719241_x_at) / Fold change /veh CAMK2N1 (11719241_x_at) / RFU C5orf56 (11738088_a_at) / Fold change /veh C5orf56 (11738088_a_at) / RFU OLFML3 (11715873_a_at) / Fold change /veh OLFML3 (11715873_a_at) / RFU LOC100653217 /// NTM (11731650_a_at) / Fold change /veh LOC100653217 /// NTM (11731650_a_at) / RFU MAPK11 (11762145_a_at) / Fold change /veh MAPK11 (11762145_a_at) / RFU FIZ1 (11724087_x_at) / Fold change /veh FIZ1 (11724087_x_at) / RFU OASL (11726364_x_at) / Fold change /veh OASL (11726364_x_at) / RFU SOX15 (11748057_x_at) / Fold change /veh SOX15 (11748057_x_at) / RFU CD79A (11719716_a_at) / Fold change /veh CD79A (11719716_a_at) / RFU HIST1H1D (11736915_at) / Fold change /veh HIST1H1D (11736915_at) / RFU CASKIN2 (11723855_a_at) / Fold change /veh CASKIN2 (11723855_a_at) / RFU LOC730098 (11760151_x_at) / Fold change /veh LOC730098 (11760151_x_at) / RFU OR4N2 (11742367_at) / Fold change /veh OR4N2 (11742367_at) / RFU PRRT2 (11749266_a_at) / Fold change /veh PRRT2 (11749266_a_at) / RFU SNX32 (11753110_a_at) / Fold change /veh SNX32 (11753110_a_at) / RFU CDHR5 (11726645_a_at) / Fold change /veh CDHR5 (11726645_a_at) / RFU RCAN1 (11760418_a_at) / Fold change /veh RCAN1 (11760418_a_at) / RFU FAM167A (11723789_a_at) / Fold change /veh FAM167A (11723789_a_at) / RFU FAM26E (11764081_at) / Fold change /veh FAM26E (11764081_at) / RFU ISYNA1 (11749810_s_at) / Fold change /veh ISYNA1 (11749810_s_at) / RFU ACY1 (11761880_at) / Fold change /veh ACY1 (11761880_at) / RFU 11764098_at / Fold change /veh 11764098_at / RFU SAMD14 (11745864_x_at) / Fold change /veh SAMD14 (11745864_x_at) / RFU NPB (11741838_a_at) / Fold change /veh NPB (11741838_a_at) / RFU TMPRSS6 (11731388_a_at) / Fold change /veh TMPRSS6 (11731388_a_at) / RFU KRTAP10-2 (11738614_at) / Fold change /veh KRTAP10-2 (11738614_at) / RFU ARHGAP8 /// PRR5-ARHGAP8 (11727945_x_at) / Fold change /veh ARHGAP8 /// PRR5-ARHGAP8 (11727945_x_at) / RFU KRTAP5-7 /// NADSYN1 (11734609_at) / Fold change /veh KRTAP5-7 /// NADSYN1 (11734609_at) / RFU RASL12 (11751679_a_at) / Fold change /veh RASL12 (11751679_a_at) / RFU CDKN2B (11736163_a_at) / Fold change /veh CDKN2B (11736163_a_at) / RFU PRF1 (11729649_at) / Fold change /veh PRF1 (11729649_at) / RFU, ZNF638 /// ZNF638-IT1 / Fold change vs veh, ZNF638 /// ZNF638-IT1 / RFU, PANK3 / Fold change vs veh, PANK3 / RFU, SH3YL1 / Fold change vs veh, SH3YL1 / RFU, ZEB2 / Fold change vs veh, ZEB2 / RFU, NRIP1 / Fold change vs veh, NRIP1 / RFU, PTTG1IP / Fold change vs veh, PTTG1IP / RFU, CAPN2 / Fold change vs veh, CAPN2 / RFU, MED14 / Fold change vs veh, MED14 / RFU, SNORA58 / Fold change vs veh, SNORA58 / RFU, C1orf63 / Fold change vs veh, C1orf63 / RFU, LRRFIP1 / Fold change vs veh, LRRFIP1 / RFU, NDUFAF7 / Fold change vs veh, NDUFAF7 / RFU, SLC12A2 / Fold change vs veh, SLC12A2 / RFU, IBTK / Fold change vs veh, IBTK / RFU, ESF1 / Fold change vs veh, ESF1 / Fold change vs veh, TMEM50B / RFU, TAOK1 / Fold change vs veh, TAOK1 / RFU, ACBD3 / Fold change vs veh, ACBD3 / RFU, TMA16 / Fold change vs veh, TMA16 / RFU, RWDD3 / Fold change vs veh, RWDD3 / RFU, BCAT1 / Fold change vs veh, BCAT1 / RFU, EDEM3 / Fold change vs veh, EDEM3 / RFU, TMEM33 / Fold change vs veh, TMEM33 / RFU, WDR75 / Fold change vs veh, WDR75 / RFU, AHCTF1 / Fold change vs veh, AHCTF1 / RFU, TFRC / Fold change vs veh, TFRC / RFU, ZDHHC17 / Fold change vs veh, ZDHHC17 / RFU, NOM1 / Fold change vs veh, NOM1 / RFU, ARL8B / Fold change vs veh, ARL8B / RFU, ZBTB11 / Fold change vs veh, ZBTB11 / RFU, TAMM41 / Fold change vs veh, TAMM41 / RFU, KIAA1704 /// LOC100996395 / Fold change vs veh, KIAA1704 /// LOC100996395 / RFU, ING1 / Fold change vs veh, ING1 / RFU, TRMT61B / Fold change vs veh, TRMT61B / RFU, FUBP3 / Fold change vs veh, FUBP3 / RFU, TP53 / Fold change vs veh, TP53 / RFU, TNKS2 / Fold change vs veh, TNKS2 / RFU, ZFP14 / Fold change vs veh, ZFP14 / RFU, ACTR2 / Fold change vs veh, ACTR2 / RFU, PPP3R1 / Fold change vs veh, PPP3R1 / RFU, PIK3R1 / Fold change vs veh, PIK3R1 / RFU, HNRNPA1 / Fold change vs veh, HNRNPA1 / RFU, RNF170 / Fold change vs veh, RNF170 / RFU, ZNF28 / Fold change vs veh, ZNF28 / RFU, RNGTT / Fold change vs veh, RNGTT / RFU, OGT / Fold change vs veh, OGT / RFU, BRD1 / Fold change vs veh, BRD1 / RFU, MARS / Fold change vs veh, MARS / RFU, ZNF655 / Fold change vs veh, ZNF655 / RFU, FAHD1 / Fold change vs veh, FAHD1 / RFU, BDP1 / Fold change vs veh, BDP1 / RFU, LRRCC1 / Fold change vs veh, LRRCC1 / RFU, ARID1A / Fold change vs veh, ARID1A / RFU, ZNF146 / Fold change vs veh, ZNF146 / RFU, ZNF330 / Fold change vs veh, ZNF330 / RFU, GPN3 / Fold change vs veh, GPN3 / RFU, C9orf123 / Fold change vs veh, C9orf123 / RFU, N4BP2L2 / Fold change vs veh, N4BP2L2 / RFU, ARFIP1 / Fold change vs veh, ARFIP1 / RFU, FAM179B / Fold change vs veh, FAM179B / RFU, BCL10 / Fold change vs veh, BCL10 / RFU, UHRF1BP1L / Fold change vs veh, UHRF1BP1L / RFU, BET1 / Fold change vs veh, BET1 / RFU, CNOT2 / Fold change vs veh, CNOT2 / RFU, ZNF268 / Fold change vs veh, ZNF268 / Fold change vs veh, ZNF507 / RFU, DGCR2 / Fold change vs veh, DGCR2 / RFU, WDSUB1 / Fold change vs veh, WDSUB1 / Fold change vs veh, HSP90B1 /// MIR3652 / RFU, ADSS / Fold change vs veh, ADSS / RFU, GK / Fold change vs veh, GK / RFU, ZNF148 / Fold change vs veh, ZNF148 / RFU, TAF9 / Fold change vs veh, TAF9 / RFU, SLC1A5 / Fold change vs veh, SLC1A5 / RFU, SLMO2 / Fold change vs veh, SLMO2 / RFU, ABCC4 / Fold change vs veh, ABCC4 / RFU, LOC101060439 /// RAP1B / Fold change vs veh, LOC101060439 /// RAP1B / RFU, RFX7 / Fold change vs veh, RFX7 / RFU, GTPBP10 / Fold change vs veh, GTPBP10 / RFU, CNEP1R1 / Fold change vs veh, CNEP1R1 / RFU, BIVM-ERCC5 /// ERCC5 / Fold change vs veh, BIVM-ERCC5 /// ERCC5 / RFU, ILF3 / Fold change vs veh, ILF3 / RFU 11762660_at / Fold change /veh 11762660_at / RFU VCAN (11757783_s_at) / Fold change /veh VCAN (11757783_s_at) / RFU DDX43 (11728927_at) / Fold change /veh DDX43 (11728927_at) / RFU KRT8 (11758188_x_at) / Fold change /veh KRT8 (11758188_x_at) / RFU NKD1 (11759106_at) / Fold change /veh NKD1 (11759106_at) / RFU SRD5A1 (11742802_a_at) / Fold change /veh SRD5A1 (11742802_a_at) / RFU TPSAB1 /// TPSB2 (11721975_s_at) / Fold change /veh TPSAB1 /// TPSB2 (11721975_s_at) / RFU GSTM3 (11746129_a_at) / Fold change /veh GSTM3 (11746129_a_at) / RFU IL23R (11737362_x_at) / Fold change /veh IL23R (11737362_x_at) / RFU TMEM51 (11727254_a_at) / Fold change /veh TMEM51 (11727254_a_at) / RFU PIWIL2 (11732686_x_at) / Fold change /veh PIWIL2 (11732686_x_at) / RFU ORM1 (11744905_x_at) / Fold change /veh ORM1 (11744905_x_at) / RFU CCDC152 (11743942_at) / Fold change /veh CCDC152 (11743942_at) / RFU ECM1 (11717891_a_at) / Fold change /veh ECM1 (11717891_a_at) / RFU IL23R (11748794_a_at) / Fold change /veh IL23R (11748794_a_at) / RFU TNFAIP8L3 (11732012_x_at) / Fold change /veh TNFAIP8L3 (11732012_x_at) / RFU MBOAT4 (11741988_at) / Fold change /veh MBOAT4 (11741988_at) / RFU 11764193_at / Fold change /veh 11764193_at / RFU TMEM53 (11763286_at) / Fold change /veh TMEM53 (11763286_at) / RFU MAGEB2 (11727129_at) / Fold change /veh MAGEB2 (11727129_at) / RFU TMEM200A (11744735_a_at) / Fold change /veh TMEM200A (11744735_a_at) / RFU CCDC152 (11751479_a_at) / Fold change /veh CCDC152 (11751479_a_at) / RFU FAM211A (11726209_a_at) / Fold change /veh FAM211A (11726209_a_at) / RFU RGS16 (11746705_a_at) / Fold change /veh RGS16 (11746705_a_at) / RFU VCAN (11755009_s_at) / Fold change /veh VCAN (11755009_s_at) / RFU RHOB (11743442_s_at) / Fold change /veh RHOB (11743442_s_at) / RFU RGS16 (11720943_a_at) / Fold change /veh RGS16 (11720943_a_at) / RFU RGS16 (11720944_at) / Fold change /veh RGS16 (11720944_at) / RFU, VPS4B / Fold change vs veh, VPS4B / RFU, CREB1 / Fold change vs veh, CREB1 / RFU, DNAJC13 / Fold change vs veh, DNAJC13 / RFU, GNAQ / Fold change vs veh, GNAQ / RFU, CDK5R1 / Fold change vs veh, CDK5R1 / RFU, ZRANB3 / Fold change vs veh, ZRANB3 / RFU, CUL4A / Fold change vs veh, CUL4A / RFU, CCNY / Fold change vs veh, CCNY / RFU, UFL1 / Fold change vs veh, UFL1 / RFU, COG3 / Fold change vs veh, COG3 / RFU, DIAPH2 / Fold change vs veh, DIAPH2 / RFU, SKA2 / Fold change vs veh, SKA2 / RFU, AFF3 / Fold change vs veh, AFF3 / RFU, LMF1 / Fold change vs veh, LMF1 / RFU, IPO11 / Fold change vs veh, IPO11 / RFU, DFFB / Fold change vs veh, DFFB / RFU, FOXP1 / Fold change vs veh, FOXP1 / RFU, CARD8 / Fold change vs veh, CARD8 / RFU, STRN3 / Fold change vs veh, STRN3 / RFU, ADK / Fold change vs veh, ADK / RFU, RASSF2 / Fold change vs veh, RASSF2 / RFU, WIPF1 / Fold change vs veh, WIPF1 / RFU, LARP1B / Fold change vs veh, LARP1B / RFU, RASA1 / Fold change vs veh, RASA1 / RFU, RB1 / Fold change vs veh, RB1 / RFU, PPFIA1 / Fold change vs veh, PPFIA1 / RFU, MAT2A / Fold change vs veh, MAT2A / RFU, CCT5 / Fold change vs veh, CCT5 / RFU, WDR92 / Fold change vs veh, WDR92 / RFU, CUX1 / Fold change vs veh, CUX1 / RFU, TTC7A / Fold change vs veh, TTC7A / RFU, TMEM135 / Fold change vs veh, TMEM135 / RFU, DEPTOR / Fold change vs veh, DEPTOR / RFU, CPM / Fold change vs veh, CPM / RFU, DNAJB6 / Fold change vs veh, DNAJB6 / RFU, CACNA2D3 / Fold change vs veh, CACNA2D3 / RFU, DTX4 / Fold change vs veh, DTX4 / RFU, TFCP2 / Fold change vs veh, TFCP2 / RFU, GMCL1 /// GMCL1P1 / Fold change vs veh, GMCL1 /// GMCL1P1 / RFU, AEBP2 / Fold change vs veh, AEBP2 / RFU, SNHG1 /// SNORD22 /// SNORD25 /// SNORD26 /// SNORD27 /// SNORD28 /// SNORD29 /// SNORD31 / Fold change vs veh, SNHG1 /// SNORD22 /// SNORD25 /// SNORD26 /// SNORD27 /// SNORD28 /// SNORD29 /// SNORD31 / Fold change (Aza/veh), C12orf56 (ProbeSet 11735607_a_at) / Fold change (ACY-1035/veh), C12orf56 (ProbeSet 11735607_a_at) / Fold change (Aza/veh), FGFR1OP (ProbeSet 11751329_s_at) / Fold change (ACY-1035/veh), FGFR1OP (ProbeSet 11751329_s_at) / Fold change (Aza/veh), VPS36 (ProbeSet 11739960_a_at) / Fold change (ACY-1035/veh), VPS36 (ProbeSet 11739960_a_at) / RFU SYPL1 (11715823_x_at) / Fold change /veh SYPL1 (11715823_x_at) / RFU IGFBP7 (11715501_s_at) / Fold change /veh IGFBP7 (11715501_s_at) / RFU REEP3 (11722064_at) / Fold change /veh REEP3 (11722064_at) / RFU IGLL1 (11728026_x_at) / Fold change /veh IGLL1 (11728026_x_at): dose or concentration left out as unconfirmed
Conditions: ProbeSet 11757268_x_at; LIST B

Nc1ncn([C@@H]2O[C@H](CO)[C@@H](O)[C@H]2O)c(=O)n1 [azacitidine]
RFU, HNRNPA1: 4469.53 RFU

Source: PMC5218480 (PLoS ONE, 2017)
